≈ marks a conversion by molar mass, not a printed value. Read-outs that look alike come from different tables or passages of the source. Marks after values point to notes of the source that are not given here.
Key:
P. aeruginosa = assay: Susceptibility testing MIC/MBC, broth microdilution (Example 2); type: cell-based, Pseudomonas aeruginosa; details: for MBC / MIC: Pseudomonas aeruginosa; for MBC: read-out: MBC; for MIC: read-out: MIC
[1] = system: AmpC-derepressed Enterobacter cloacae; assay: microbe, parasite or virus in culture; type: cell-based; details: for MBC range / MIC range: E. cloacae (10) clinical isolates; for MBC / MIC: Enterobacter cloacae
[2] = system: ESBL-producing Klebsiella pneumoniae; assay: Susceptibility testing MIC/MBC, broth microdilution (Example 2); type: cell-based; details: for MBC / MIC: Klebsiella pneumoniae; for MBC: read-out: MBC; for MIC: read-out: MIC
Klebsiella pneumoniae = assay: MIC, broth microdilution (Example 1); type: cell-based
Protocol: (§1) Stock solutions of all antibacterial agents were prepared at 80-fold (80×) the final target concentration in the appropriate solvent and the solution was allowed to stand for 60 minutes. All antibacterial agents were in solution under these conditions. The final drug concentrations in the FIC assay plates were set to bracket the MIC value of each agent for each test organism, unless the strain was totally resistant to the test agent.
(§2) The test organisms were originally received from clinical sources, or from the American Type Culture Collection. Upon receipt, the isolates were streaked onto the appropriate growth medium: Chocolate Agar for H. influenzae, Tryptic Soy Agar II (Becton Dickinson, Sparks, Md.) supplemented with 5% defibrinated sheep blood for streptococci, and unsupplemented Tryptic Soy Agar II for all other organisms. Colonies were harvested from these plates and a cell suspension was prepared in Tryptic Soy Broth (Becton Dickinson) containing cryoprotectant. Aliquots were then frozen at −80° C. On the day prior to assay, the frozen seeds of the organisms to be tested in that session were thawed and streaked for isolation onto the appropriate agar medium plates and incubated overnight at 35° C.
(§3) The test medium for H. influenzae was Haemophilus Test Medium. Streptococci were tested in Mueller Hinton II Broth (Becton Dickinson; Lot 6235472) supplemented with 2% lysed horse blood (Cleveland Scientific, Bath, Ohio; Lot H88621). All other organisms were tested in Mueller Hinton II Broth (Becton Dickinson, Lot 6235472). The broth was prepared at 1.05× normal weight/volume to offset the 5% volume of the drugs in the final test plates.
(§4) In order to select the proper test concentrations for each drug combination, minimal inhibitory concentration (MIC) values were first determined using the broth microdilution method previously described (Clinical and Laboratory Standards Institute. Methods for Dilution Antimicrobial Susceptibility Tests for Bacteria That Grow Aerobically; Approved Standard—Seventh Edition. Clinical and Laboratory Standards Institute document M7-A7 [ISBN 1-56238-587-9]. Clinical and Laboratory Standards Institute, 940 West Valley Road, Suite 1400, Wayne, Pa. 19087-1898 USA, 2006).
(§5) The wells of standard 96-well microdilution plates (Falcon 3918) were filled with 150 μL of 100% DMSO using the Multidrop 384. These plates were used to prepare the drug “mother plates” which provided the serial drug dilutions for the drug combination plates. The Biomek 2000 was used to transfer 150 μl of each stock solution (80×) from the wells in Column 1 of a deep well plate to the corresponding wells in Column 1 of the mother plate and to make seven 2-fold serial dilutions. Two mother plates, one for each drug, were combined to form a “checkerboard” pattern by transfer of equal volumes (using a multi-channel pipette) to the drug combination plate. Row H and Column 8 each contained serial dilutions of one of the agents alone for determination of the MIC.
(§6) Plates were stacked 3 high, covered with a lid on the top plate, placed in plastic bags, and incubated at 35° C. for approximately 20 hours. Following incubation, the microplates were removed from the incubator and viewed from the bottom using a ScienceWare plate viewer. Prepared reading sheets were marked for the MIC of drug 1 (row H), the MIC of drug 2 (column 8) and the wells of the growth-no growth interface.

Escherichia coli = assay: MIC, broth microdilution (Example 1); type: cell-based
Protocol: as §1, §2, §3, §4, §5, §6

Pseudomonas aeruginosa = assay: MIC, broth microdilution (Example 1); type: cell-based
Protocol: as §1, §2, §3, §4, §5, §6

ESBL-producing E. coli = assay: Susceptibility testing MIC/MBC, broth microdilution (Example 2); type: cell-based, Escherichia coli; details: for MBC range / MIC range: E. coli (10) clinical isolates; for MBC / MIC: Escherichia coli; for MBC: read-out: MBC; for MIC: read-out: MIC
Streptococcus pyogenes = assay: MIC, broth microdilution (Example 1); type: cell-based; details: Streptococcus pyogenes, read-out: MIC
Protocol: as §1, §2, §3, §4, §5, §6

Streptococcus pneumoniae = assay: MIC, broth microdilution (Example 1); type: cell-based
Protocol: as §1, §2, §3, §4, §5, §6

Haemophilus influenzae = assay: MIC, broth microdilution (Example 1); type: cell-based; details: Haemophilus influenzae, read-out: MIC
Protocol: as §1, §2, §3, §4, §5, §6

[3] = P. aeruginosa (20) clinical isolates
[4] = K. pneumonia (10) clinical isolates
[5] = Klebsiella pneumoniae, K. pneumoniae 1340, read-out: MIC
[6] = Klebsiella pneumoniae, K. pneumoniae 1461, read-out: MIC
[7] = Escherichia coli, E. coli 1587, read-out: MIC
[8] = Escherichia coli, E. coli 2273 (ESBL), read-out: MIC

Q: With `NCC[C@H](O)C(=O)N[C@@H]1C[C@H](N)[C@@H](O[C@H]2O[C@H](CN)[C@@H](O)[C@H](O)[C@H]2O)[C@H](O)[C@H]1O[C@H]1O[C@H](CO)[C@@H](O)[C@H](N)[C@H]1O` [Amikacin] as the compound, how does the MBC range (P. aeruginosa; [3]) read?
A: 2 to 64 µg/mL

Q: What about the MIC range (P. aeruginosa; [3]) of the same compound?
A: 2 to 16 µg/mL

Q: What about the MBC (P. aeruginosa; P. aeruginosa isolate no. 796) of the same compound?
A: 32 µg/mL (≈ 54.6 µM)

Q: And the MIC (P. aeruginosa; P. aeruginosa isolate no. 796)?
A: 16 µg/mL (≈ 27.3 µM)

Q: And the MBC (P. aeruginosa; P. aeruginosa isolate no. 956)?
A: 64 µg/mL (≈ 109 µM)

Q: And the MIC (P. aeruginosa; P. aeruginosa isolate no. 956)?
A: 4 µg/mL (≈ 6.83 µM)

Q: And the MBC (P. aeruginosa; P. aeruginosa isolate no. 1019)?
A: 4 µg/mL (≈ 6.83 µM)

Q: And the MIC (P. aeruginosa; P. aeruginosa isolate no. 1019)?
A: 4 µg/mL (≈ 6.83 µM)

Q: What about the MBC (P. aeruginosa; P. aeruginosa isolate no. 1037) of the same compound?
A: 4 µg/mL (≈ 6.83 µM)

Q: What about the MIC (P. aeruginosa; P. aeruginosa isolate no. 1037) of the same compound?
A: 2 µg/mL (≈ 3.42 µM)

Q: What about the MBC range [1] of the same compound?
A: 1 to 8 µg/mL

Q: And the MIC range [1]?
A: 0.5 to 4 µg/mL

Q: And the MBC ([1]; E. cloacae isolate no. 4073)?
A: 8 µg/mL (≈ 13.7 µM)

Q: And the MIC ([1]; E. cloacae isolate no. 4073)?
A: 1 µg/mL (≈ 1.71 µM)

Q: What about the MBC ([1]; E. cloacae isolate no. 5420) of the same compound?
A: 2 µg/mL (≈ 3.42 µM)

Q: What about the MIC ([1]; E. cloacae isolate no. 5420) of the same compound?
A: 1 µg/mL (≈ 1.71 µM)

Q: And the MBC range [2, 4]?
A: 1 to 128 µg/mL

Q: What about the MIC range [2, 4] of the same compound?
A: 1 to 32 µg/mL

Q: What about the MBC ([2]; K. pneumonia isolate no. 5427) of the same compound?
A: 2 µg/mL (≈ 3.42 µM)

Q: And the MIC ([2]; K. pneumonia isolate no. 5427)?
A: 2 µg/mL (≈ 3.42 µM)

Q: What about the MBC ([2]; K. pneumonia isolate no. 5436) of the same compound?
A: 2 µg/mL (≈ 3.42 µM)

Q: What about the MIC ([2]; K. pneumonia isolate no. 5436) of the same compound?
A: 1 µg/mL (≈ 1.71 µM)

Q: What about the MIC (Klebsiella pneumoniae; [5]) of the same compound?
A: 1 µg/mL

Q: And the MIC (Klebsiella pneumoniae; [6])?
A: 1 µg/mL

Q: What about the MIC (Escherichia coli; [7]) of the same compound?
A: 4 µg/mL

Q: What about the MIC (Escherichia coli; [8]) of the same compound?
A: 8 µg/mL

Q: And the MIC (Pseudomonas aeruginosa; P. aeruginosa 2555)?
A: 8 µg/mL

Q: What about the MIC (Pseudomonas aeruginosa; P. aeruginosa 2559) of the same compound?
A: 4 µg/mL

Q: What about the MBC range (ESBL-producing E. coli) of the same compound?
A: 4 to 64 µg/mL

Q: And the MIC range (ESBL-producing E. coli)?
A: 1 to 16 µg/mL

Q: And the MBC (ESBL-producing E. coli; E. coli isolate no. 5401)?
A: 4 µg/mL (≈ 6.83 µM)

Q: What about the MIC (ESBL-producing E. coli; E. coli isolate no. 5401) of the same compound?
A: 2 µg/mL (≈ 3.42 µM)

Q: What about the MBC (ESBL-producing E. coli; E. coli isolate no. 5411) of the same compound?
A: 16 µg/mL (≈ 27.3 µM)

Q: What about the MIC (ESBL-producing E. coli; E. coli isolate no. 5411) of the same compound?
A: 8 µg/mL (≈ 13.7 µM)

Q: What does the source list for `C[C@H]1COc2c(N3CCN(C)CC3)c(F)cc3c(=O)c(C(=O)O)cn1c23` [Levofloxacin]?
A: MIC range (P. aeruginosa; [3]): 0.25 to 32 µg/mL; MBC (P. aeruginosa; P. aeruginosa isolate no. 796): 2 µg/mL (≈ 5.53 µM); MIC (P. aeruginosa; P. aeruginosa isolate no. 796): 1 µg/mL (≈ 2.77 µM); MBC (P. aeruginosa; P. aeruginosa isolate no. 956): 1 µg/mL (≈ 2.77 µM); MIC (P. aeruginosa; P. aeruginosa isolate no. 956): 0.5 µg/mL (≈ 1.38 µM); MBC (P. aeruginosa; P. aeruginosa isolate no. 1019): 1 µg/mL (≈ 2.77 µM); MIC (P. aeruginosa; P. aeruginosa isolate no. 1019): 0.5 µg/mL (≈ 1.38 µM); MBC (P. aeruginosa; P. aeruginosa isolate no. 1037): 0.5 µg/mL (≈ 1.38 µM); MIC (P. aeruginosa; P. aeruginosa isolate no. 1037): 0.25 µg/mL (≈ 0.692 µM); MBC range [1]: 0.03 to 128 µg/mL; MIC range [1]: 0.03 to 64 µg/mL; MBC ([1]; E. cloacae isolate no. 4073): 0.06 µg/mL (≈ 0.166 µM); MIC ([1]; E. cloacae isolate no. 4073): 0.06 µg/mL (≈ 0.166 µM); MBC ([1]; E. cloacae isolate no. 5420): 0.06 µg/mL (≈ 0.166 µM); MIC ([1]; E. cloacae isolate no. 5420): 0.06 µg/mL (≈ 0.166 µM); MBC ([2]; K. pneumonia isolate no. 5427): 2 µg/mL (≈ 5.53 µM); MIC ([2]; K. pneumonia isolate no. 5427): 0.25 µg/mL (≈ 0.692 µM); MBC ([2]; K. pneumonia isolate no. 5436): 4 µg/mL (≈ 11.1 µM); MIC ([2]; K. pneumonia isolate no. 5436): 4 µg/mL (≈ 11.1 µM); MIC (Streptococcus pyogenes; S. pyogenes 0717): 0.5 µg/mL; MIC (Streptococcus pyogenes; S. pyogenes 0722): 0.5 µg/mL; MIC (Klebsiella pneumoniae; K. pneumoniae 1461): >4^a μg/mL; MIC (Klebsiella pneumoniae; [5]): 0.06 µg/mL; MIC (Klebsiella pneumoniae; [6]): > 4 µg/mL; MIC (Escherichia coli; E. coli 2273 (ESBL)): >4^a μg/mL; MIC (Escherichia coli; [7]): 0.06 µg/mL; MIC (Escherichia coli; [8]): > 4 µg/mL; MIC (Streptococcus pneumoniae; S. pneumoniae 0866 (PSSP)): 1 ^ μg/mL; MIC (Streptococcus pneumoniae; S. pneumoniae 0869 (PSSP)): 1 ^ μg/mL; MIC (Streptococcus pneumoniae; S. pneumoniae 0880 (PRSP)): >4^a μg/mL; MIC (Streptococcus pneumoniae; S. pneumoniae 0884 (PRSP)): 1 ^ μg/mL; MIC (Streptococcus pneumoniae; Streptococcus pneumoniae, PRSP, S. pneumoniae 0880 (PRSP), read-out: MIC): > 4 µg/mL; MIC (Streptococcus pneumoniae; Streptococcus pneumoniae, PRSP, S. pneumoniae 0884 (PRSP), read-out: MIC): 1 µg/mL; MIC (Streptococcus pneumoniae; Streptococcus pneumoniae, S. pneumoniae 0866 (PSSP), read-out: MIC): 1 µg/mL; MIC (Streptococcus pneumoniae; Streptococcus pneumoniae, S. pneumoniae 0869 (PSSP), read-out: MIC): 1 µg/mL; MIC (Haemophilus influenzae; H. influenzae 1224): 0.015 µg/mL; MIC (Haemophilus influenzae; H. influenzae 2797 (BLNAR)): 0.015 µg/mL; MIC (Haemophilus influenzae; H. influenzae 2798 (BLNAR)): 0.015 µg/mL; MIC (Haemophilus influenzae; H. influenzae 2799 (BLNAR)): 0.015 µg/mL; MBC range (ESBL-producing E. coli): 0.06 to 32 µg/mL; MIC range (ESBL-producing E. coli): 0.03 to 32 µg/mL; MBC (ESBL-producing E. coli; E. coli isolate no. 5401): 32 µg/mL (≈ 88.6 µM); MIC (ESBL-producing E. coli; E. coli isolate no. 5401): 32 µg/mL (≈ 88.6 µM); MBC (ESBL-producing E. coli; E. coli isolate no. 5411): 16 µg/mL (≈ 44.3 µM); MIC (ESBL-producing E. coli; E. coli isolate no. 5411): 8 µg/mL (≈ 22.1 µM)
